Earlier results, collected in patent US20040197905A1, “Methods and devices for monitoring cellular metabolism in microfluidic cell-retaining chambers” (Thermogenic Imagining, priority 2003, published 2004).
Like-named read-outs stand apart in the source and are kept apart here.

- pKa (at 37° C.): 7.3-7.4
- pKa (at room temperature): about 7.5
Substance: carboxy SNARF-1
